pIC50: −log10 of the molar value. Values belong to the molecule of their own block, whether it stands above or below them.
Key:
[1] = target: T1, PPARα (Homo sapiens, UniProt Q07869); experiment: TR-FRET competitive binding assay
T1 construct: gene PPARA
T1 sequence (Q07869 196-468 limits assumed): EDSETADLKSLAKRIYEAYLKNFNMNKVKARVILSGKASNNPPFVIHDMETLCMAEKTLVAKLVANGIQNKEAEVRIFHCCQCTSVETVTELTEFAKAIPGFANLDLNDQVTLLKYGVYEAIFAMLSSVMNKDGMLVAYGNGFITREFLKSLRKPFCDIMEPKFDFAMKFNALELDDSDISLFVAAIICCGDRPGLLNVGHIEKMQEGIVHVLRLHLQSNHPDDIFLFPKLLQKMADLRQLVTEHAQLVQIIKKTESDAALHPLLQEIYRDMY

[2] = target: T2, PPARγ (Homo sapiens, UniProt P37231); experiment: TR-FRET competitive binding assay
T2 construct: gene PPARG
T2 sequence (P37231 232-505 limits assumed): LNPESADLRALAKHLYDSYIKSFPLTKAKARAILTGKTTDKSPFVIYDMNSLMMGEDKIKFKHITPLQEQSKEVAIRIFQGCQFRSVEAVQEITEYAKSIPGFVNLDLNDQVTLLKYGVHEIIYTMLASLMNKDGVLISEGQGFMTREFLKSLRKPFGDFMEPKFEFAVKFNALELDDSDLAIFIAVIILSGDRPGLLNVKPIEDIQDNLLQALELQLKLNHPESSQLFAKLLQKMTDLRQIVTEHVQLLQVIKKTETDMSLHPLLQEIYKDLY

[3] = target: T1, PPARα; experiment: TR-FRET competitive binding assay; also ultrafiltration LC-MS and cell transactivation

pIC50 [1]: 6.64
Structure (SMILES): CCC(=O)NC[C@H](Cc1ccc(OCCc2nc(-c3ccccc3)oc2C)cc1)N/C(C)=C\C(=O)c1ccc(C(F)(F)F)cc1 [GW6471]

Structure (SMILES): O=C(Nc1ccccc1)c1cc([N+](=O)[O-])ccc1Cl [GW9662]
pIC50 [2]: 7.61

pIC50 [3]: 5.93
Structure (SMILES): COc1ccc(-c2cc(=O)c3c(O)c(OC)c(O)cc3o2)cc1OC [eupatilin]

— article PMC6331909, “Identification of Eupatilin from Artemisia argyi as a Selective PPARα Agonist Using Affinity Selection Ultrafiltration LC-MS” (Molecules, 2015)
